{
  "source": "patent US20110196035A1",
  "about": "“Temporally-Controlled Treatment of Joint Disease” (priority 2010, published 2011)",
  "system": "HIG-82 synovial cells",
  "note": "Read-outs that look alike come from different tables or passages of the source.",
  "method": "After having made these measurements at various times following insertion of the test composition into the simulated joint, the effect on MMP production by synovial cells for relevant blocker concentrations and times of exposure was measured employing a confluent layer of HIG-82 synovial cells in serumless Neuman-Tytell growth medium, which is a model system commonly used by those skilled in the art to represent human synovial tissue for the purpose of studying the proinflammatory effects of IL-1 and the antagonization thereon produced by agents of interest, for example, calcium-channel blockers.\nThe MMP levels in the medium conditioned by the cells were measured using the assay described in Kolomytkin, O. V., Marino, A. A., Waddell, D. D., Mathis, J. M., Wolf, R. E., Sadasivan, K. K. and Albright, J. A. IL-1β-induced Production of Metalloproteinases by Synovial Cells Depends on Gap-junction Conductance.",
  "data": [
    {"smiles": "COc1ccc(CCN(C)CCCC(C#N)(c2ccc(OC)c(OC)c2)C(C)C)cc1OC", "note": "(racemic) [racemic verapamil, verapamil]", "values": [
      {"measurement": "reduction of MMP activity", "setting": "0.009 mg/mL for 300 hours", "result": "about 21%"},
      {"measurement": "reduction of MMP production/activity", "setting": "0.05 mg/mL for 32 hours", "result": 59, "unit": "%"},
      {"measurement": "reduction of MMP production/activity", "setting": "0.05 mg/mL for 34 hours", "result": 61, "unit": "%"},
      {"measurement": "reduction in MMP activity", "setting": "0.05 mg/mL for 62 hours", "result": 87, "unit": "%"},
      {"measurement": "inhibition at 50 µg/mL", "setting": "Synovial cell, 45 h, read-out: maximum MMP inhibition", "result": "~81", "unit": "%"},
      {"measurement": "inhibition at 31 µg/mL", "setting": "Synovial cell, 300 h, read-out: MMP inhibition", "result": "~61", "unit": "%"},
      {"measurement": "inhibition at 19 µg/mL", "setting": "Synovial cell, 300 h, read-out: maximum MMP inhibition", "result": 37, "unit": "%"},
      {"measurement": "inhibition at 50 µg/mL", "setting": "Synovial cell, read-out: MMP inhibition", "result": 81, "unit": "%"},
      {"measurement": "reduction of MMP production", "setting": "conditions of 2 mg in saline composition: average 0.006 mg/mL, about 35 hours", "result": 13, "unit": "%"},
      {"measurement": "verapamil concentration at which MMP inhibition reaches its maximum value", "setting": "exposure about 45 hours, further increases give no enhanced inhibition", "result": "about 0.05 mg/mL"},
      {"measurement": "maximum MMP inhibition", "setting": "exposure time 10 hours (FIG. 3A)", "result": 22, "unit": "%"},
      {"measurement": "maximum MMP inhibition", "setting": "exposure time 100 hours (FIG. 3A)", "result": 91, "unit": "%"}
    ]}
  ]
}
